These results are taken from US5238936A, “Trisubstituted triazines” (Adir et Compagnie, priority 1991, dated 1993).

Each structure is given as a SMILES string.

In data set [1] the test system is line DC-3F/AD. Nature of the data set: Cytotoxicity (Microculture Tetrazolium Assay): reversal of resistance to actinomycin D, line DC-3F/AD. Format: cell-based, Chinese hamster. Particulars: 4 days. From the text:
The pharmacological study of the compounds of the present invention consisted first of all in an evaluation in vitro carried out on resistant cells. The parameter measured is the cytotoxicity of the antitumour drug, quantified in the absence and in the presence of the reversing compound.
The cells are distributed on microplates and exposed to the cytotoxic compounds (actinomycin D for line DC-3F/AD and adriamycin for line KB-Al) at 9 concentrations (2 by 2 series dilutions). The compounds tested for their capacity to reverse MDR are added at the same time as the cytotoxic agent.
The cells are then incubated for 4 days. […] The results are expressed as a reversion factor (RF): PG,29 [formula]

Data set [2] deals with resistant line P/388/VCR. In words: Antitumour activity in vivo: increase in antitumour activity of vincristine on murine leukaemia P 388/VCR. Also on record: species or system murine; female B6D2Fl mice. As to conditions: with vincristine […] i.p., ± sem, no compound: 146 ± 2. From the text: This study was completed by an in vivo study, using a murine leukaemia resistant to vincristine (P/388/VCR) and using the compounds in association with vincristine.
The sensitive parent line P 388 (murine leukaemia) and the sub-line resistant to vincristine, P 388/VCR, were supplied by NCI (Frederick, USA). The tumour cells (10^6 cells) were inoculated on day 0 into the intraperitoneal cavity of female B6D2Fl mice (Iffa Credo, France) weighing from 18 to 20 g (groups of 8 to 10 animals).
Every day for 4 days, starting from day 1, the animals received: […]
30 to 60 minutes later, an administration by the i.p. route of 0.25 mg/kg of vincristine (used as a reference antitumour agent).
The tumour activity is expressed as follows: [formula]
The values are mean values obtained in independent experiments (± sem when n is greater than or equal to 3).

The test system of data set [3] is line DC-3F/AD. In words: Flow cytometry: intracellular accumulation of adriamycin by cells of the line DC-3F/AD. The class given is cell-based, Chinese hamster. Particulars: ADR 50 μM, 5 hours. The text has this:
Also measured was the effect of the compounds on the intracellular concentration of the cytotoxic agent. In effect, the known compounds for reversing MDR act by increasing the intracellular concentration of cytotoxic agent. This effect is the consequence of inhibiting the action of gP 170 which is responsible for the efflux of the drug.
By measuring that fluorescence, it is thus possible to obtain a relative measurement of the intracellular concentration of ADR.
The cells 500×10^3 per ml were exposed simultaneously to ADR at a fixed concentration (50 μM) and to the tested compounds at various concentrations. After 5 hours' incubation, the intracellular accumulation of ADR was evaluated by FCM. […] The analysis of each of the samples was carried out on a total of 10,000 cells at a rate of 1,000 cells per second.
The results were presented in the form of linear histograms of the intracellular ADR fluorescence.
Expression of the results: for each of the histograms the mean fluorescence per channel (MEAN) was determined by the information system of the apparatus. For all experiments:
a negative control (cells without ADR) fixed the autofluorescence threshold.
a positive control (cells with ADR) determined the MEAN value=MN1.
the "test" tubes (cells with ADR and with compound) were used to determine, for each of the compounds and at each of the concentrations, the MEAN values=MN2.
The results are expressed in the form of variations from the mean fluorescence obtained for each of the "test" tubes (MN2) in relation to the mean fluorescence obtained with the positive control (MNl): VAR-MEAN=MN2-MN1. The parameter expressed is thus the increase in ADR fluorescence in the presence of the tested compounds.
A general note: Flow cytometry measures light scatter and fluorescence of single cells or particles in a stream.

Where [4] appears, read: 100 mg/kg i.p. daily for 4 days.

Consider `C=CCNc1nc(NCC=C)nc(N2CCC(NCC3c4ccccc4N(C)S(=O)(=O)c4cc(Cl)ccc43)CC2)n1` (racemic) [Example 21, 2,4-diallylamino-6-{4-[(8-chloro-10,10-dioxo-11-methyl-(R,S)-dibenzo[c,f]thiazepin-5-yl)methylamino]piperidin-1-yl}-1,3,5-triazine], for which the “Reversion factors (cytotoxicity) with the line DC-3F/AD” value (“Reversion factors (cytotoxicity)” below) is recorded as 1.2 in data set [1] (0.5 μM compound), 18 in data set [1] (1 μM compound) and 2804 in data set [1] (5 μM compound). Also, the T/C % in data set [2] (50 mg/kg i.p. daily for 4 days) was determined as 154%; in data set [2] (setting [4]), 148%. Moreover, the “VAR-MEAN (increase in ADR fluorescence), line DC-3F/AD” value in data set [3] (1.0 μM compound) stood at 8.1; in data set [3] (5.0 μM compound) it was 22.8; in data set [3] (10 μM compound), 24.1; in data set [3] ([…] compound), 21.1.
As to `C=CCNc1nc(NC)nc(N2CCC(NCC3c4ccccc4COc4ccccc43)CC2)n1` (racemic) [Example 28, 2-allylamino-4-methylamino-6-{4-[((R,S)-6,11-dihydro-dibenzo[b,e]oxepin-11-yl)methylamino]piperidin-1-yl}-1,3,5-triazine], the “Reversion factors (cytotoxicity)” value was found to be 18.1 in data set [1] (1 μM compound) and 600.4 in data set [1] (5 μM compound). The T/C % worked out at 170% in data set [2] (50 mg/kg i.p. daily for 4 days) and 171% in data set [2] (setting [4]). In addition, the “VAR-MEAN (increase in ADR fluorescence), line DC-3F/AD” value in data set [3] (1.0 μM compound) amounted to 4.3; in data set [3] (5.0 μM compound), 16.8; in data set [3] (10 μM compound), 21.5; in data set [3] ([…] compound), 12.8.
As for `C=CCNc1nc(NCC)nc(N2CCC(NCC3c4ccccc4COc4ccccc43)CC2)n1` (racemic) [Example 29, 2-allylamino-4-ethylamino-6-{4-[((R,S)-6,11-dihydrodibenzo[b,e]oxepin-11-yl)methylamino]piperidin-1-yl}-1,3,5-triazine], the “Reversion factors (cytotoxicity)” value in data set [1] (0.5 μM compound) is recorded as 1.7; in data set [1] (1 μM compound), 33.8; in data set [1] (5 μM compound), 1327.5. The values for the T/C % in data set [2] (50 mg/kg i.p. daily for 4 days) and in data set [2] (setting [4]) were 171 ± 6% and 185 ± 7%, respectively. Also, the “VAR-MEAN (increase in ADR fluorescence), line DC-3F/AD” value in data set [3] (1.0 μM compound) came to 6.4; in data set [3] (5.0 μM compound) it was 18.0; in data set [3] (10 μM compound) it was 21.8; in data set [3] ([…] compound), 13.3.
On to `C=CCNc1nc(NCC=C)nc(N2CCC(NCC3c4ccccc4CCc4cc(OC)ccc43)CC2)n1` (racemic) [Example 31, 2,4-diallylamino-6-{4-[((R,S)-10,11-dihydro-5H-2-methoxydibenzo[a,d]cyclohepten-5-yl)methylamino]piperidin-1-yl)-1,3,5-triazine], for which the “Reversion factors (cytotoxicity)” value in data set [1] (0.5 μM compound) is 3.1; in data set [1] (1 μM compound), 85.9; in data set [1] (5 μM compound), 1913.4. The figures for the T/C % in data set [2] (50 mg/kg i.p. daily for 4 days) and in data set [2] (setting [4]) were 159% and 177%, respectively. For the same molecule, the “VAR-MEAN (increase in ADR fluorescence), line DC-3F/AD” value is 9.4 in data set [3] (1.0 μM compound), 30.8 in data set [3] (5.0 μM compound) and 26.6 in data set [3] ([…] compound).
For `C=CCNc1nc(NCC=C)nc(N2CCC(NCC3c4ccccc4CCc4ccccc43)CC2)n1` [Example 3, 2,4-Diallylamino-6-{4-[(10,11-dihydro-5H-dibenzo[a,d]cyclohepten-5-yl)methylamino]piperidin-1-yl}-1,3,5-triazine], the results for the “Reversion factors (cytotoxicity)” value in data set [1] (0.5 μM compound), in data set [1] (1 μM compound) and in data set [1] (5 μM compound) were 43, 236 and 3187, respectively. The figures for the T/C % in data set [2] (50 mg/kg i.p. daily for 4 days) and in data set [2] (setting [4]) were 208 ± 23% and 193 ± 3%, respectively. For the same molecule, the “VAR-MEAN (increase in ADR fluorescence), line DC-3F/AD” value in data set [3] (1.0 μM compound) was 20.2; in data set [3] (5.0 μM compound), 28.3; in data set [3] (10 μM compound) it was 29.6; in data set [3] ([…] compound) it was 25.8.
`C=CCNc1nc(NCCC)nc(N2CCC(NCC3c4ccccc4CCc4ccccc43)CC2)n1` [Example 5, 2-allylamino-4-propylamino-6-{4-[(10,11-dihydro-5H-dibenzo[a,d]cyclohepten-5-yl)methylamino]piperidin-1-yl}-1,3,5-triazine]: the “Reversion factors (cytotoxicity)” value in data set [1] (0.5 μM compound) was determined as 3.8; in data set [1] (1 μM compound) it was 81; in data set [1] (5 μM compound), 2753. Further, the values for the T/C % in data set [2] (50 mg/kg i.p. daily for 4 days) and in data set [2] (setting [4]) were 184% and 195%, respectively. In addition, the “VAR-MEAN (increase in ADR fluorescence), line DC-3F/AD” value came to 17.9 in data set [3] (1.0 μM compound), 27.3 in data set [3] (5.0 μM compound), 24.9 in data set [3] (10 μM compound) and 23.5 in data set [3] ([…] compound).
Take `C=CCNc1nc(NCC=C)nc(N2CCC(NCC3c4ccccc4C=Cc4ccccc43)CC2)n1` [Example 11, 2,4-diallylamino-6-{4-[(5H-dibenzo[a,d]cyclohepten-5-yl)methylamino]piperidin-1-yl}-1,3,5-triazine]: the “Reversion factors (cytotoxicity)” value in data set [1] (0.5 μM compound) is listed as 2; in data set [1] (1 μM compound) it was 26; in data set [1] (5 μM compound), 1408. Moreover, the T/C % in data set [2] (50 mg/kg i.p. daily for 4 days) worked out at 156%; in data set [2] (setting [4]), 168 ± 15%. For the same molecule, the “VAR-MEAN (increase in ADR fluorescence), line DC-3F/AD” value was 12.7 in data set [3] (1.0 μM compound), 24.5 in data set [3] (5.0 μM compound), 25.8 in data set [3] (10 μM compound) and 20.2 in data set [3] ([…] compound).
Consider `C=CCNc1nc(NCC=C)nc(N2CCC(NCC3c4ccccc4CCCc4ccccc43)CC2)n1` [Example 20, 2,4-diallylamino-6-{4-[(5,6,7,12-tetrahydrodibenzo[a,d]cycloocten-12-yl)methylamino]piperidin-1-yl}-1,3,5-triazine], for which the results for the “Reversion factors (cytotoxicity)” value in data set [1] (0.5 μM compound), in data set [1] (1 μM compound) and in data set [1] (5 μM compound) were 3.4, 52 and 2951, respectively. In addition, the T/C % in data set [2] (50 mg/kg i.p. daily for 4 days) is 161%; in data set [2] (setting [4]) it was 174%. In addition, the “VAR-MEAN (increase in ADR fluorescence), line DC-3F/AD” value in data set [3] (1.0 μM compound) amounted to 8.2; in data set [3] (5.0 μM compound) it was 22.3; in data set [3] (10 μM compound), 21.6; in data set [3] ([…] compound), 19.7.
On to `C=CCNc1nc(NCC)nc(N2CCC(NCC3c4ccccc4CCc4ccccc43)CC2)n1` [Example 22, 2-allylamino-4-ethylamino-6-{4-[(10,11-dihydro-5H-dibenzo[a,d]cyclohepten-5-yl)methylamino]piperidin-1-yl}-1,3,5-triazine], for which the “Reversion factors (cytotoxicity)” value in data set [1] (0.5 μM compound) was 32; in data set [1] (1 μM compound), 177; in data set [1] (5 μM compound), 2499. The T/C % in data set [2] (50 mg/kg i.p. daily for 4 days) stood at 159%; in data set [2] (setting [4]), 165%. The “VAR-MEAN (increase in ADR fluorescence), line DC-3F/AD” value was found to be 15.1 in data set [3] (1.0 μM compound), 23.1 in data set [3] (5.0 μM compound), 24.9 in data set [3] (10 μM compound) and 21.9 in data set [3] ([…] compound).
